The source of these data is patent publication US9999222B2, “Herbicidal combination comprising azines” (BASF SE, priority 2014, dated 2018).

What all share (experiment): Greenhouse test, pre-emergence treatment
Assay [1] concerns SORHA. In kind it is in vivo, Sorghum halepense. Conditions: Sorghum halepense, pre-emergence, read-out: observed % activity; for inhibition at 250 g/ha: 250 g ai/ha; for inhibition at 8 g/ha: 8 g ai/ha; for inhibition at 16 g/ha: 16 g ai/ha. The source says: (§1) The culture containers used were plastic flowerpots containing loamy sand with approximately 3.0% of humus as the substrate. The seeds of the test plants were sown separately for each species.
(§2) For the pre-emergence treatment, the active ingredients, which had been suspended or emulsified in water, were applied directly after sowing by means of finely distributing nozzles. The containers were irrigated gently to promote germination and growth and subsequently covered with transparent plastic hoods until the plants had rooted. This cover caused uniform germination of the test plants, unless this had been impaired by the active ingredients.
(§3) Depending on the species, the plants were kept at 10-25° C. or 20-35° C., respectively.
(§4) The test period extended over 2 to 4 weeks. During this time, the plants were tended, and their response to the individual treatments was evaluated.
(§5) Evaluation was carried out using a scale from 0 to 100. 100 means no emergence of the plants, or complete destruction of at least the aerial moieties, and 0 means no damage, or normal course of growth. A moderate herbicidal activity is given at values of at least 60, a good herbicidal activity is given at values of at least 70, and a very good herbicidal activity is given at values of at least 85.
(§6) The respective stated components a and b, and if appropriate, c were formulated as a 10% by weight strength emulsion concentrate and, with addition of the amount of solvent system, introduced into the spray liquor used for applying the active compound.
(§7) In the examples, the solvent used was water.
(§8) In the examples below, using the method of S. R. Colby (1967) “Calculating synergistic and antagonistic responses of herbicide combinations”, Weeds 15, p. 22ff., the value E, which is expected if the activity of the individual active compounds is only additive, was calculated. E=X+Y−(X·Y/100) where • X=percent activity using active compound a at an application rate A; • Y=percent activity using active compound b at an application rate B; • E=expected activity (in %) by a+b at application rates A+B.
(§9) If the value found experimentally is higher than the value E calculated according to Colby, a synergistic effect is present.

Assay [2] has as its system DIGSA. The class given is in vivo, Digitaria sanguinalis. To be noted: 8 g ai/ha.
Assay [3] concerns IPOHE. The class given is in vivo, Ipomoea hederacea. Conditions: Ipomoea hederacea, 480 h. An outline of the steps: (§10)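 Seeds were sown in loamy sand with about 3.0% humus, and compounds in water were sprayed immediately after sowing, alone or as combinations formulated as 10% emulsion concentrates. Plants grew under hoods until rooted, at 10-25 °C or 20-35 °C by species, for 2 to 4 weeks. Damage was scored 0-100 (100 = no emergence or complete destruction), and Colby expected values were E=X+Y−(X·Y/100).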

Assay [4] concerns SETVI. In kind it is in vivo, Setaria viridis.
From the text: as §1, §2, §3, §4, §5, §6, §7, §8, §9

Assay [5] relates to APESV. In kind it is in vivo, Apera spica-venti. To be noted: for inhibition at 12.5 g/ha: use rate 12.5 g ai/ha; for inhibition at 25 g/ha: use rate 25 g ai/ha.
From the text: as §1, §2, §3, §4, §5, §6, §7, §8, §9

Assay [6] has as its system ABUTH. The class given is in vivo, Abutilon theophrasti. Conditions: Abutilon theophrasti, 480 h. An outline of the steps:
as §10

Assay [7] deals with VIOAR. The class given is in vivo, Viola arvensis.
From the text: as §1, §2, §3, §4, §5, §6, §7, §8, §9

The test system of assay [8] is CENCY. In kind it is in vivo. To be noted: 480 h, read-out: observed % activity 20 DAT.
The subject of assay [9] is ERICA. The class given is in vivo. Conditions: 480 h, 125 g ai/ha, read-out: observed % activity 20 DAT.
Assay [10] concerns MATIN. The class given is in vivo.
For assay [11], the system named is ANTAR. The class given is in vivo. Conditions: Anthemis arvensis, 480 h, 20 DAT, read-out: observed % activity. The gist of the method:
as §10

Assay [12] has as its system ERICA. In kind it is in vivo, Erigeron canadensis.
The test system of assay [13] is CENCY. The class given is in vivo. Conditions: 480 h, individual, read-out: observed % activity 20 DAT.
Assay [14] has as its system DIGSA. In kind it is in vivo. To be noted: Digitaria sanguinalis, 480 h, read-out: observed % activity 20 DAT.
Setting [15] is: 24 g ai/ha, read-out: observed % activity 20 DAT.
Setting [16] is: Apera spica-venti, 480 h, APESV, 20 DAT, read-out: observed % activity 20 DAT.
Setting [17] is: Apera spica-venti, 480 h, read-out: observed % activity 20 DAT.
The mark [18] stands for this setting: 16 g ai/ha, 20 DAT, read-out: observed % activity.

Where “and” joins values, the source holds several entries; their conditions need not be identical. Identical values can stand only once. Like-named read-outs stand apart in the source and are kept apart here.

In the case of `Cn1nc(C(F)(F)F)c(CS(=O)(=O)C2=NOC(C)(C)C2)c1OC(F)F` [Pyroxasulfone, pyroxasulfone], in [1] (480 h, 6 g ai/ha, 20 DAT), the inhibition at 6 g/ha worked out at 75%. Further, the inhibition at 24 g/ha in assay [1] (480 h, 24 g ai/ha, 20 DAT) is 98%. Moreover, the “observed % activity 20 DAT” value in assay [2] turned out to be 95%; in [4] (8 g ai/ha), 85%. Also, the figures for the pest or weed control at 24 g/ha in assay [3] (setting [15]) and in assay [6] (setting [15]) were 10% and 40%, respectively. Moreover, the inhibition at 12.5 g/ha is 40% in assay [5] (setting [16]) and 50% in [5] (setting [17]). Besides, the inhibition at 25 g/ha in assay [5] (setting [16]) is 50%; in assay [5] (setting [17]), 60%.
Turning to `CC(C)N(C(=O)COc1nnc(C(F)(F)F)s1)c1ccc(F)cc1` [Flufenacet, flufenacet], in [7] (use rate 30 g ai/ha), the “observed % activity 20 DAT” value is given as 0%. In assay [1] (480 h, 40 g ai/ha, 20 DAT), the inhibition at 40 g/ha is 95%.
`CSc1nnc(C(C)(C)C)c(=O)n1N` [metribuzin]: the inhibition at 250 g/ha in assay [1] (480 h, 20 DAT) worked out at 45%; in assay [8] (250 g ai/ha), 85%; in assay [3] (250 g ai/ha, read-out: observed % activity 20 DAT) it was 20%; in assay [4] (Setaria viridis, 480 h, 250 g ai/ha, read-out: observed % activity 20 DAT) it was 95%. Moreover, the inhibition at 125 g/ha in [8] (125 g ai/ha) came out at 75%; in assay [9], 98%; in [4] (Setaria viridis, 480 h, 125 g ai/ha, read-out: observed % activity 20 DAT), 65%.
Regarding `COCC(C)N(C(=O)CCl)c1c(C)csc1C` (stereo not shown) [Dimethenamid, dimethenamid], in assay [7] (Viola arvensis, 480 h, use rate 31.25 g ai/ha, read-out: observed % activity 20 DAT), the inhibition at 31.25 g/ha was 0%. Also, the inhibition at 62.5 g/ha in [7] (Viola arvensis, 480 h, use rate 62.5 g ai/ha, read-out: observed % activity 20 DAT) is 0%. The inhibition at 125 g/ha in assay [7] (Viola arvensis, 480 h, use rate 125 g ai/ha, read-out: observed % activity 20 DAT) turned out to be 0%. In addition, the “observed % activity 20 DAT” value in [7] (use rate 31.25 g ai/ha) is on record as 0%; in assay [7] (use rate 62.5 g ai/ha), 0%; in assay [7] (use rate 125 g ai/ha), 0%; in [10] (use rate 62.5 g ai/ha), 70%; in assay [10] (use rate 125 g ai/ha) it was 90%; in assay [5] (use rate 62.5 g ai/ha, 20 DAT) it was 95%.
With `CC1(c2nc(N)nc(Nc3c(F)c(F)cc(F)c3F)n2)CCC1` [compound 8, 6-(1-methylcyclobutyl)-N4-(2,3,5,6-tetrafluorophenyl)-1,3,5-triazine-2,4-diamine], the inhibition at 8 g/ha in assay [11] (8 g ai/ha) was 80%; in [1] (192 h, 8 DAT), 90%; in [1] (480 h, 20 DAT), 90%; in [6] (8 g ai/ha, 20 DAT, read-out: observed % activity), 80%. Further, the inhibition at 16 g/ha in [11] (16 g ai/ha) worked out at 85%; in assay [1] (192 h, 8 DAT), 90%; in [1] (480 h, 20 DAT), 90%; in assay [3] (setting [18]), 35%; in assay [6] (setting [18]) it was 70%.
For the compound `CCC(CC)Nc1c([N+](=O)[O-])cc(C)c(C)c1[N+](=O)[O-]` [Pendimethalin, pendimethalin], the “observed % activity 20 DAT” value is reported as 80% in assay [7] (use rate 500 g ai/ha); 60% in assay [5] (use rate 125 g ai/ha, 20 DAT); 75% in assay [5] (use rate 250 g ai/ha, 20 DAT); 95% in [5] (use rate 500 g ai/ha, 20 DAT); 90% in [12] (500 g ai/ha); 90% in assay [12] (1000 g ai/ha). For the same compound, the inhibition at 250 g/ha in assay [1] (480 h, 20 DAT) turned out to be 75%; in [5] (Apera spica-venti, 480 h, use rate 250 g ai/ha, read-out: observed % activity 20 DAT), 75%. Also, the inhibition at 500 g/ha in assay [1] (480 h, 500 g ai/ha, 20 DAT) amounted to 85%; in [5] (Apera spica-venti, 480 h, use rate 500 g ai/ha, read-out: observed % activity 20 DAT), 95%. In addition, the pest or weed control at 500 g/ha in assay [3] (500 g ai/ha, read-out: observed % activity 20 DAT) is 0%. The pest or weed control at 1000 g/ha in assay [3] (1000 g ai/ha, read-out: observed % activity 20 DAT) came out at 0%. The inhibition at 125 g/ha in assay [5] (Apera spica-venti, 480 h, use rate 125 g ai/ha, read-out: observed % activity 20 DAT) was 85%.
As for `CC(C)(F)c1nc(N)nc(Nc2c(F)c(F)cc(F)c2F)n1` [compound 2, 6-(1-Fluoro-1-methyl-ethyl)-N4-(2,3,5,6-tetrafluorophenyl)-1,3,5-triazine-2,4-diamine], the “observed % activity 20 DAT” value was 50% in assay [7] (use rate 2 g ai/ha); 98% in assay [10] (use rate 1 g ai/ha); 90% and 95% in assay [5] (use rate 2 g ai/ha, 20 DAT); 98% in assay [5] (use rate 4 g ai/ha, 20 DAT). Moreover, in [5] (Apera spica-venti, 480 h, APESV, use rate 1 g ai/ha, 20 DAT, read-out: observed % activity 20 DAT), the inhibition at 1 g/ha came out at 95%. Further, the inhibition at 2 g/ha in [5] (Apera spica-venti, 480 h, APESV, use rate 2 g ai/ha, 20 DAT, read-out: observed % activity 20 DAT) was determined as 95%.
As for `CC(C)N(C)S(=O)(=O)NC(=O)c1cc(-n2c(=O)cc(C(F)(F)F)n(C)c2=O)c(F)cc1Cl` [Saflufenacil, saflufenacil], the inhibition at 5 g/ha in [11] (5 g ai/ha) is 98%; in [8] (5 g ai/ha) it was 20%; in [13] (use rate 5 g ai/ha), 20%. The inhibition at 10 g/ha in [8] (10 g ai/ha) was 30%; in [13] (use rate 10 g ai/ha), 30%; in [6] (10 g ai/ha, 20 DAT, read-out: observed % activity), 90%; in assay [6] (10 g ai/ha, read-out: observed % activity 20 DAT), 25%; in assay [6] (ABUTH, individual, use rate 10 g ai/ha, read-out: observed % activity 20 DAT) it was 25%. For the same compound, the inhibition at 18 g/ha in assay [14] (18 g ai/ha) came out at 0%. The inhibition at 36 g/ha in assay [14] (36 g ai/ha) came out at 65%. In addition, the inhibition at 3.125 g/ha in assay [5] (Apera spica-venti, 480 h, APESV, use rate 3.125 g ai/ha, 20 DAT, read-out: observed % activity 20 DAT) amounted to 0%.
